Experiment: Randomized crossover pharmacokinetics study of two Sytrinol formulations, single oral dose, serum tangeretin and nobiletin by LC/MS/MS
Parameters: species or system healthy human subjects
Settings: human, in vivo
Experimental: The following experiments were undertaken to determine whether citrus polymethoxylated flavones (PMFs) can be detected and quantitated in serum obtained from healthy adults after a single-dose administration of Sytrinol™ capsules (containing 1053 mg of total PMFs) and to compare oral bioavailabilities of two Sytrinol™ formulations in healthy human subjects. This study was conducted as a randomized crossover trial in ten healthy adults, five men and five women, age 23±3 years. […]
Peripheral blood was taken by venipuncture at time 0 (baseline) and times 0.25, 0.5, 1, 2, 4, 6, 8, 24 and 48 hours after ingestion of Sytrinol™ capsules. […] Tangeretin and nobiletin were detected in serum samples and quantitated by LC/MS/MS.
The study was designed to determine whether PMFs can be detected and quantitated in serum obtained from healthy adults after a single dose administration of Sytrinol™ capsules (containing 1053 mg of total PMFs) and to compare oral bioavailabilities of two Sytrinol™ formulations in healthy human subjects. […]
A method of serum extraction and LC/MS/MS analysis of PMF was developed. A Varian 1200 L LC/MS/MS system equipped with ESI and APCI sources was used to identify and quantify tangeretin and nobiletin. […]

- AUC0-48h of nobiletin compared with tangeretin: significantly higher
SMILES: COc1ccc(-c2cc(=O)c3c(OC)c(OC)c(OC)c(OC)c3o2)cc1OC [nobiletin]
